We go through one molecule from patent US20050074827A1, “Methods for identifying modulators of quorum-sensing signaling in bacteria” (priority 2003, published 2005).

Molecules are shown by their SMILES.

In test [1] the test system is LasR-controlled promoter PrsaL (yfp reporter) in MW1.pUM15. As to the kind of experiment: Titration of yfp expression in MW1.pUM15 against autoinducer concentration. It counts as cell-based, Pseudomonas aeruginosa. An excerpt:
Strain Construction. We tested whether the P. aeruginosa quorum-sensing-controlled promoter for the rsaL gene (PrsaL) can be used in high-throughput screening to identify modulators of quorum-sensing signaling. We constructed a plasmid (designated pUM15) with yfp under control of the P. aeruginosa LasR-controlled promoter PrsaL and introduced the plasmid into P. aeruginosa wild-type strain PAO1 (designated PAO1.pUM15). In PAO1.pUM15, the expression of yfp is dependent on the endogenously synthesized autoinducer, 3-oxo-C12-HSL. Thus, fluorescence will be altered if a test compound modulates any aspect of signaling, including, e.g., signal synthesis, stability, reception, or expression of LasR-dependent genes. Accordingly, we designated this assay the “Complete Signaling Assay” or CSA. […]
Measurement of Reporter Gene Product. We measured fluorescence with an excitation filter at 485 nm and an emission filter at 535 nm in a Tecan SPECTRAFluor Plus plate reader. […]
Expression Depends on Autoinducer. […] We detected very little fluorescence in MW1.pUM15 culture grown in the absence of signal molecule (FIG. 1).
The Assay Mimics Naturally Occurring Quorum-Sensing Signaling. […] We observed that fluorescence in MW1.pUM15 is half-maximal at 200±100 nM 3-oxo-C12-HSL (FIG. 2). […] We also confirmed that expression of yfp is quorum-sensing dependent by graphing fluorescence per cell against cell density (FIG. 3). […]

For test [2] the following is noted: cell-based binding assay, Passador et al., J. Bacteriol. 178: 5995-6000 (1996); read-out: half-maximal saturation; cited from earlier work.

Turning to `CCCCCCCCCC(=O)CC(=O)NC1CCOC1=O` (stereo not drawn) [3-oxo-C12-HSL], the EC50 in test [1] (MW1.pUM15, yfp fluorescence, FIG. 2, read-out: 3-oxo-C12-HSL concentration at which fluorescence in MW1.pUM15 is half-maximal) stood at 200 ± 100 nM. Further, the “effect on yfp expression in MW1.pUM15” value in test [1] (addition of autoinducer, 0.9 mM per FIG. 1 legend) was “restored expression of yfp”. Moreover, the Kd in test [2] is 200 nM.
